Measurements reported in PMC6218659, “Structures of DPAGT1 Explain Glycosylation Disease Mechanisms and Advance TB Antibiotic Design” (Cell, 2018).
≈ marks a conversion by molar mass, not a printed value. Structures can show the parent of a compound that is named as a salt. Where two headings read alike, the source gives them in different places.

Tests used:
B. subtilis EC1524 = assay: Micro-broth dilution and drop plate antimicrobial susceptibility test; type: cell-based, Bacillus subtilis; conditions: for Relative Therapeutic Index (RTI), B. subtilis EC1524: minimal lethal dose / MIC, 800 μg mL-1 used for >400
Description: (§1) In a sterile 96-well plate, serial dilutions were made with the test substance to final volume of 50 μl. Inoculum was then prepared in Mueller-Hinton broth to 0.5 McFarland and diluted before adding 50 μl to the well to make ∼1x10^5 CFU/ml. The culture plate was incubated at 35 °C for 20-24 hrs. A positive growth control and sterility wells were also prepared along with the culture wells. Absorbance at OD600 was taken using BMG Labtech SPECTROstar Omega spectrophotometer. MIC is determined by the lowest concentration without growth. IC50 is determined from plotting a dose-response curve, see Data Analysis below. To determine the MBC, using a multi-channel pipette, 1 μl of culture broth was taken from the same 96-well microdilution growth plate and carefully inoculated on surface of MH agar plate. The plate is then incubated for additional 20 hrs. at 35 °C. The MBC value is the lowest concentration without observed growth on the agar.

Mtb H37Rv ATCC27294 [1] = assay: Minimum inhibitory concentrations testing against Mtb; type: cell-based, Mycobacterium tuberculosis; conditions: for MIC: Mycobacterium tuberculosis, 168 h
[2] = Human plasma protein binding assay; type: in vitro ADME; conditions: read-out: human plasma protein binding, bound (converted)
Mtb-GFP = type: cell-based, Mycobacterium tuberculosis
HEK293 cells = assay: Cell proliferation assay (MTS); type: cell-based, human; conditions: for LD50 values, HEK293: MTS cell proliferation assay, 24 hrs, highest concentration 400 µg mL-1; for Minimal Lethal Dose, HEK 293: serial 2-fold dilutions (Table S6)
Description: (§2) In sterile 96-well plate, each well was seeded with ∼1x10^5 cells. The cells are then grown confluent overnight in 100 μl DMEM with 10% FBS. The medium is replenished with DMEM with 2% FBS and added vehicle control or test substance the next day. For test substance in methanol, stock was added to 25 μl of DMEM with 2% FBS or PBS and placed in the laminar flow hood to let the methanol evaporate (about 1-3 hrs). Once the methanol has evaporated, DMEM with 2% FBS was added to final volume of 100 μl of desired test concentration. […] Cells are grown for additional 24 hrs. The cell viability was determined by using Promega CellTiter 96^© AQueous One Solution Cell Proliferation Assay (3-(4,5-dimethylthiazol-2-yl)-5-(3-carboxymethoxyphenyl)-2-(4-sulfophenyl)-2H-tetrazolium, inner salt; MTS) System following the manufacture protocol.

Raji cells = assay: Cell proliferation assay (MTS); type: cell-based, human; conditions: 24 hrs
Description: as §2

HepG2 cells = assay: Cell proliferation assay (MTS); type: cell-based, human; conditions: for LD50 values, HepG2: MTS cell proliferation assay, 24 hrs, highest concentration 400 µg mL-1; for Minimal Lethal Dose, HepG2: serial 2-fold dilutions (Table S6)
Description: as §2

in vivo = assay: in vivo; set-up: species or system C57BL/6 mice; conditions: ip; for concentration at 0.5 h / concentration at 1 h / concentration at 2 h / concentration at 4 h / concentration at 6 h / concentration at 24 h: female, C57BL/6, mouse, 30 mg/kg
Description: Test compound was dosed to sixteen female C57BL/6 mice by intraperitoneal injection in a volume of 0.6 ml. To reconstitute TUN-8,8 for intraperitoneal injections, compound (1 mg) was dissolved in 0.1 ml ethanol and subsequently diluted with 0.9 ml 1% Tween 80 in Dulbecco’s PBS. The mixture was warmed to 37 °C, vortexed and sonicated followed by sterile filtration through a 0.2 μm filter. Blood samples were taken from the tail vein of the mice at pre-determined time intervals post-dose, and serum collected after 4 h on ice. 30 μl serum samples were prepared with 30 μl internal standard and 20 μl of water or spiked standard along with 240 μl of ACN/MeOH mix (3:1) to precipitate proteins. Samples were centrifuged 13 krpm for 5 minutes and 2 μl injected into LC-MS/MS system. Calibration standard was prepared 1 mg of TUN-8,8 to 1 ml DMSO and successively diluted by a factor of 3. TUN-9,9 IS solution was prepared to 200 μg/ml in DMSO.
LC-MS/MS was performed on an Agilent 1290 Infinity HPLC coupled to an Agilent 6460C triple quadrupole mass selective detector with electrospray ionization in positive mode. TUN-8,8 and TUN-9,9 (as an internal standard) were detected using their M+H precursors ions with 514.1 and 528.2 Da/z product ions produced in a collision cell using collision energy 12 V. Capillary voltage was 3000 V and ESI used jet stream technology with sheath voltage 2000 V. The column was an Agilent C18 Poroshell 120 2.7 μm with dimensions 2.1 x 50 mm at 40 °C. Mobile phase was water (A) and acetonitrile (B) each with 0.1% (v/v) formic acid. […] Water for LC-MS/MS was purified by a Barnstead Diamond system to 18.2 MΩ-cm resistivity. Acetonitrile (ACN) and Methanol were HPLC grade from Fisher (Fairlawn NJ, USA) and formic acid was supplied from EMD Millipore Corp (Darmstadt, Germany). DMSO was ACS grade manufactured by Amresco LLC in Solon Ohio USA.

B. cereus ATCC11778 = assay: Micro-broth dilution and drop plate antimicrobial susceptibility test; type: cell-based, Bacillus cereus; conditions: for Relative Therapeutic Index (RTI), B. cereus NRRL 11778: minimal lethal dose / MIC, 800 μg mL-1 used for >400
Description: as §1

[3] = system: Mtb-infected J774A.1 macrophages; assay: Efficacy against Mtb growing in infected macrophages; conditions: J774A.1 macrophages treated 3 or 7 days
Mtb H37Rv ATCC27294 [4] = assay: Macromolecular incorporation assay (radiolabeled glucosamine); conditions: within 48 h, 10x MIC
[5] = Tolerance testing in uninfected mice; type: in vivo; conditions: uninfected mice (n=5), 10 days, daily 30 mg.kg^-1 ip
Mtb-infected mice = assay: Mouse infection, antitubercular activity
[6] = Bacillus subtilis, EC1524, read-out: Minimal Inhibitory Concentration, B. subtilis EC1524
[7] = Bacillus cereus, ATCC 11778 / NRRL11778, read-out: Minimal Inhibitory Concentration, B. cereus NRRL 11778
[8] = two weeks, 10 mg.kg^-1 ip, vs vehicle control

CCCCCCCC(=O)N[C@H]1[C@H](O[C@H]2O[C@H](CO)[C@@H](O)[C@H](O)[C@H]2NC(=O)CCCCCCC)O[C@H](C[C@@H](O)[C@H]2O[C@@H](n3ccc(=O)[nH]c3=O)[C@H](O)[C@@H]2O)[C@H](O)[C@@H]1O [TUN-8,8, Di-N-octanoyl-tunicamycin]
IC50 (B. subtilis EC1524; Bacillus subtilis, EC1524): 0.2 µg/mL (≈ 0.244 µM)
MBC (B. subtilis EC1524; Bacillus subtilis, EC1524): > 0.78 µg/mL
MIC (B. subtilis EC1524; Bacillus subtilis, EC1524): 0.65 ± 0.22 µg/mL (≈ 0.794 µM)
MIC (B. subtilis EC1524; [6]): 0.78 µg/mL (≈ 0.952 µM)
Relative Therapeutic Index (RTI), B. subtilis EC1524 (B. subtilis EC1524): 1026
Relative Therapeutic Index (RTI), Mtb H37RV a (Mtb H37Rv ATCC27294 [1]): 1140
MIC (Mtb H37Rv ATCC27294 [1]; read-out: 1-week MIC in 7H9/ADC/Tw): 0.7 ± 3.3 µg/mL (≈ 0.855 µM)
MIC (Mtb H37Rv ATCC27294 [1]; read-out: 1-week MIC in GAST/Fe): 0.14 ± 0.1 µg/mL (≈ 0.171 µM)
MIC (Mtb H37Rv ATCC27294 [1]; read-out: Minimal Inhibitory Concentration, Mtb H37RV a): 0.7 µg/mL (≈ 0.855 µM)
MIC (Mtb H37Rv ATCC27294 [1]; read-out: Minimal Inhibitory Concentration, Mtb H37RV b): 0.14 µg/mL (≈ 0.171 µM)
fraction unbound [2]: 0.018
extracellular release of GFP (lysis) (Mtb-GFP): lytic effects
LD50 values, HEK293 (HEK293 cells): N/A (N/A = not available. No or low cytotoxicity observed at highest, saturating concentration tested (400 µg mL-1))
Minimal Lethal Dose, HEK 293 (HEK293 cells): > 400 µg/mL
LD50 values, Raji (Raji cells): 211.05 ± 125.94 µg/mL
LD50 values, HepG2 (HepG2 cells): N/A (N/A = not available. No or low cytotoxicity observed at highest, saturating concentration tested (400 µg mL-1))
Minimal Lethal Dose, HepG2 (HepG2 cells): > 400 µg/mL
concentration at 0.5 h (in vivo; first series): 42.7 ± 28.3 µM
concentration at 1 h (in vivo; first series): 34.6 ± 7.4 µM
concentration at 2 h (in vivo; first series): 23.7 ± 9.25 µM
concentration at 4 h (in vivo; first series): 1320 ± 1090 nM
concentration at 6 h (in vivo; first series): 210 ± 120 nM
concentration at 24 h (in vivo; first series): 60 ± 80 nM
concentration at 0.5 h (in vivo; second series): 52.1 ± 34.5 µM
concentration at 1 h (in vivo; second series): 42.3 ± 9.04 µM
concentration at 2 h (in vivo; second series): 28.9 ± 11.3 µM
concentration at 4 h (in vivo; second series): 1610 ± 1330 nM
concentration at 6 h (in vivo; second series): 260 ± 150 nM
concentration at 24 h (in vivo; second series): 70 ± 100 nM
bioavailability (in vivo; mouse): good bioavailability
IC50 (B. cereus ATCC11778; Bacillus cereus, ATCC11778): 0.78 µg/mL (≈ 0.952 µM)
MBC (B. cereus ATCC11778; Bacillus cereus, ATCC11778): > 50 µg/mL
MIC (B. cereus ATCC11778; Bacillus cereus, ATCC11778): 5.2 ± 1.8 µg/mL (≈ 6.35 µM)
MIC (B. cereus ATCC11778; [7]): 6.25 µg/mL (≈ 7.63 µM)
Relative Therapeutic Index (RTI), B. cereus NRRL 11778 (B. cereus ATCC11778): 128
reduction of intracellular bacterial burdens ([3]; 1 × MIC): 1 logs
reduction of intracellular bacterial burdens ([3]; 10 × MIC): 2 logs
glucosamine incorporation (Mtb H37Rv ATCC27294 [4]): reduced
tolerance, signs of toxicity [5]: no signs of toxicity
toxicity in infected mice (Mtb-infected mice; precluded testing beyond 2 weeks): clinical signs of toxicity
reduction in bacterial burdens in lungs (Mtb-infected mice; [8]): ~10 fold
reduction in bacterial burdens in spleens (Mtb-infected mice; [8]): ~5 fold

N[C@H]1[C@H](O[C@H]2O[C@H](CO)[C@@H](O)[C@H](O)[C@H]2N)O[C@H](C[C@@H](O)[C@H]2O[C@@H](n3ccc(=O)[nH]c3=O)[C@H](O)[C@@H]2O)[C@H](O)[C@@H]1O [TUN, α-D-glucosamine-(1”-11')-tunicamyl uracil dihydrochloride]
MIC (B. subtilis EC1524; [6]): 100 µg/mL
Relative Therapeutic Index (RTI), B. subtilis EC1524 (B. subtilis EC1524): 8
MIC (Mtb H37Rv ATCC27294 [1]; 1-week in 7H9/ADC/Tw (Table S6), read-out: Minimal Inhibitory Concentration, Mtb H37RV a): > 60 µg/mL
MIC (Mtb H37Rv ATCC27294 [1]; 1-week in GAST/Fe (Table S6), read-out: Minimal Inhibitory Concentration, Mtb H37RV b): > 60 µg/mL
MIC (Mtb H37Rv ATCC27294 [1]; Mtb H37Rv, minimal growth medium, read-out: 1-week MIC in GAST/Fe): > 60 µg/mL
MIC (Mtb H37Rv ATCC27294 [1]; Mtb H37Rv, rich 7H9-based growth medium, read-out: 1-week MIC in 7H9/ADC/Tw): > 60 µg/mL
LD50 values, HEK293 (HEK293 cells): N/A (N/A = not available. No or low cytotoxicity observed at highest, saturating concentration tested (400 µg mL-1))
Minimal Lethal Dose, HEK 293 (HEK293 cells): > 400 µg/mL
LD50 values, Raji (Raji cells): 698.3 µg/mL
LD50 values, HepG2 (HepG2 cells): N/A (N/A = not available. No or low cytotoxicity observed at highest, saturating concentration tested (400 µg mL-1))
Minimal Lethal Dose, HepG2 (HepG2 cells): > 400 µg/mL
MIC (B. cereus ATCC11778; [7]): 100 µg/mL
Relative Therapeutic Index (RTI), B. cereus NRRL 11778 (B. cereus ATCC11778): 8
